Data taken from patent US11752105B2, “Spray drying process with continuous preparation of spray solution” (Hovione Scientia Limited, priority 2018, dated 2023).

Test: Continuous solution preparation: suspension passed through series of five micro-reactors (continuous dissolution)
Type: physicochemical
Conditions: solvent H2O; concentration 0.3 % wt
Excerpt: The resulting suspension was continuously passed through a series of five micro-reactors with microchannels having 500 micron diameter by means of an intensifier pump (MicroDeBEE) at a pressure of 1862 bar. […] The same experiment was repeated with the same setup for other pharmaceutical excipients and solvents. Trihalose is crystalline form and was used as a model for crystalline molecules to mimic API's.

- Continuous dissolution: YES
Compound: CC(C)C[C@H](N)C(=O)O [L-Leucine]
